Experimental data published in article PMC6150385, “The Blood-Brain Barrier Permeability of Six Indole Alkaloids from Uncariae Ramulus Cum Uncis in the MDCK-pHaMDR Cell Monolayer Model” (Molecules : A Journal of Synthetic Chemistry and Natural …, 2017).

Legend:
[1] = Bidirectional transport across MDCK-pHaMDR cell monolayer (in vitro BBB model); conditions: dog; for recovery at 90 min, 40 µM: MDCK-MDR1, Recovery Rate
[2] = in vitro; conditions: dog
[3] = Stability of QC samples after three freeze-thaw cycles (HPLC); type: physicochemical; conditions: three freeze (−20 °C)-thaw cycles, percentage remains
Experimental: The stock solutions of the six alkaloids were diluted to three concentrations (low, medium and high) as quality control (QC) samples. Accuracy, precision and stability of QC samples were validated. Accuracy and intraday precision were evaluated by determining the QC samples in three replicates on the same day, while interday precision was assessed by repeated analysis of the same QC samples over three consecutive days. Precision was estimated by RSD, which should not exceed 15%. Accuracy was assessed by comparison of the calculated mean concentrations with the spiked concentrations, and the acceptable range should be within 85–115%. The absolute recoveries of six alkaloids were determined by comparing the peak areas of analytes in QC samples with those of the standard solutions in MeOH with equivalent concentrations.

[4] = test system: MDCK-pHaMDR cell monolayer; test: Bidirectional transport across MDCK-pHaMDR cell monolayer (in vitro BBB model); conditions: for Intracellular Accumulation / Efflux Ratio (Papp BL→AP/Papp AP→BL): 40 μM, 90 min; for transport mechanism: time- (30–180 min) and concentration- (20–120 μM) dependence
[5] = test system: MDCK-pHaMDR cell monolayer; conditions: for BBB permeability classification: MDCK-MDR1; for intracellular accumulation rates: dog, MDCK-MDR1, 90 min, 40 µM
[6] = test system: P-gp; test: Transport in the presence and absence of verapamil (P-gp function / verapamil inhibition of efflux) in MDCK-pHaMDR cell monolayer
Experimental: The cell monolayers were washed twice with prewarmed HBSS before the experiments were carried out. The HBSS medium in the AP side (0.5 mL, for absorption transport) or BL side (1.5 mL, for efflux transport) was replaced with different test compounds. The plates were shaken at 55 rpm for 90 min at 37 °C in a water bath. Samples were quantitatively collected from both sides of the cell monolayer, immediately frozen, lyophilized, and then preserved below −20 °C. To measure the intracellular amounts, the cell monolayers were lyophilized after three freeze (−20 °C)–thaw (room temperature) cycles and preserved below –20 °C. […] The tested concentrations of alkaloids 1–6 were 40 µM. The function of P-gp were tested by the transport of Rh123 at 10 µM in the presence and absence of verapamil (100 µM) undertaken as described above.
The verapamil inhibition experiment was carried out for alkaloids 1 and 3. The cells were pre-incubated with 100 µM of verapamil for 30 min before drug transport assays. Then verapamil was added to both sides, and 40 µM of test alkaloid was added to AP or BL side.
Papp in AP→BL or BL→AP direction of each alkaloid was calculated based on the following equation:Papp = dQ/dt/A/C0 (cm/s) where Q is the accumulation quantity of the alkaloid in the receiver side (μmol), dQ/dt is the linear appearance rate of the alkaloid in the receiver side (μmol/s), C0 is the initial concentration in the donor side (µM), and A is the membrane surface area (cm^2). All of the experiments were conducted in six duplications and data were expressed as the mean ± SD.

[7] = MDCK-MDR1, Papp AP→BL, 40 μM, 90 min
[8] = dog, MDCK-MDR1, with verapamil 100 µM

| Structure (SMILES) | recovery at 90 min, 40 µM ([1]; AP→BL, 40 μM, 90 min) | recovery at 90 min, 40 µM ([1]; BL→AP, 40 μM, 90 min) | Papp A→B at 90 min, 40 µM ([2]; MDCK-MDR1) | Papp B→A at 90 min, 40 µM ([2]; MDCK-MDR1) | Stability ([3]; QC sample 5 μM) | Stability ([3]; QC sample 60 μM) | Stability ([3]; QC sample 120 μM) | Intracellular Accumulation ([4]; BL→AP) | Papp B→A ([2]; MDCK-MDR1) | Papp A→B [2, 7] | further results |
| --- | --- | --- | --- | --- | --- | --- | --- | --- | --- | --- | --- |
| C=C[C@H]1CN2CCc3c([nH]c4ccccc34)[C@H]2C[C@@H]1/C(=C\OC)C(=O)OC [alkaloid 6, hirsuteine] | 88.9 ± 5.99% | 104 ± 1.17% | 14.9 ± 1.83 ×10⁻⁶ cm/s | 11.3 ± 1.8 ×10⁻⁶ cm/s | 106.89 ± 3.01% | 103.80 ± 5.92% | 102.23 ± 4.19% | – | – | – | Papp at 90 min, 40 µM ([2]; MDCK-MDR1): ~10 ×10⁻⁶ cm/s |
| Cn1c(=O)c2c(ncn2C)n(C)c1=O [caffeine, reference compound] | – | – | – | – | – | – | – | – | – | – | Papp at 90 min ([1]; MDCK-MDR1): 30 ×10⁻⁶ cm/s |
| CC[C@H]1CN2CC[C@]3(C(=O)Nc4ccccc43)[C@@H]2C[C@@H]1/C(=C\OC)C(=O)OC [alkaloid 1, rhynchophylline] | 99.9 ± 1.15% | 102.2 ± 0.47% | – | – | 96.32 ± 3.30% | 96.86 ± 4.64% | 102.59 ± 3.38% | 0.40 ± 0.04% | 42.3 ± 2.48 ×10⁻⁶ cm/s | 4.37 ± 0.37 ×10⁻⁶ cm/s | Intracellular Accumulation ([4]; AP→BL): 0.36 ± 0.05%; BBB permeability classification [5]: moderate permeability; Papp A→B ([2]; MDCK-MDR1, Papp AP→BL (level), AP side to BL side): ~1 ×10⁻⁶ cm/s; Papp A→B at 90 min, 40 µM ([6]; dog, MDCK-MDR1): 22.2 ± 6.41 ×10⁻⁶ cm/s; Papp B→A at 90 min, 40 µM ([6]; dog, MDCK-MDR1): 18.1 ± 1.09 ×10⁻⁶ cm/s; P-gp substrate status ([6]; from verapamil (100 µM) inhibition of efflux): substrates of P-gp |
| C=C[C@H]1CN2CC[C@]3(C(=O)Nc4ccccc43)[C@@H]2C[C@@H]1/C(=C\OC)C(=O)OC [alkaloid 3, corynoxeine] | 96.4 ± 1.17% | 99.6 ± 1.57% | 1.21 ± 0.14 ×10⁻⁶ cm/s | 49.7 ± 4.71 ×10⁻⁶ cm/s | 106.67 ± 5.82% | 102.37 ± 1.65% | 101.52 ± 2.26% | – | – | – | Efflux Ratio (Papp BL→AP/Papp AP→BL) [4]: 40.94; Efflux Ratio (Papp BL→AP/Papp AP→BL) ([4]; listed as corynoxeine (3)): above 2; BBB permeability classification [5]: moderate permeability; intracellular accumulation rates [5]: less than 0.4%; Papp A→B ([2]; MDCK-MDR1): ~1 ×10⁻⁶ cm/s; Papp A→B at 90 min, 40 µM ([6]; dog, MDCK-MDR1): 17.2 ± 2.45 ×10⁻⁶ cm/s; Papp B→A at 90 min, 40 µM ([6]; dog, MDCK-MDR1): 17.5 ± 0.82 ×10⁻⁶ cm/s; efflux ratio at 90 min, 40 µM ([6]; dog, MDCK-MDR1, with verapamil 100 µM, Efflux Ratio (Papp BL→AP/Papp AP→BL), 40 μM alkaloid with 100 μM verapamil, 90 min): < 2 |
| CC[C@H]1CN2CCc3c([nH]c4ccccc34)[C@H]2C[C@@H]1/C(=C\OC)C(=O)OC [alkaloid 5, hirsutine] | 89.3 ± 6.15% | 104 ± 1.94% | – | – | 106.1 ± 3.57% | 101.9 ± 6.51% | 100.5 ± 4.86% | 6.19 ± 0.73% | 14.1 ± 0.73 ×10⁻⁶ cm/s | 15.1 ± 1.32 ×10⁻⁶ cm/s | transport mechanism [4]: passive diffusion; Papp ([2]; MDCK-MDR1): ~10 ×10⁻⁶ cm/s |
| C=C[C@H]1CN2CC[C@@]3(C(=O)Nc4ccccc43)[C@@H]2C[C@@H]1/C(=C\OC)C(=O)OC [alkaloid 4, isocorynoxeine] | 93 ± 1.4% | 98.47 ± 0.82% | 11.1 ± 1.49 ×10⁻⁶ cm/s | 20.7 ± 1.03 ×10⁻⁶ cm/s | 107.15 ± 5.06% | 102.72 ± 1.97% | 102.02 ± 2.43% | – | – | – | efflux ratio at 90 min, 40 µM ([1]; MDCK-MDR1, Efflux Ratio (Papp BL→AP/Papp AP→BL), 40 μM, 90 min): < 2; intracellular accumulation rates [5]: less than 0.4%; Papp at 90 min, 40 µM ([2]; MDCK-MDR1): ~10 ×10⁻⁶ cm/s |
| COC(=O)c1ccccc1-c1c2ccc(=N)cc-2oc2cc(N)ccc12 [Rh123, Rhodamine 123, reference compound] | – | – | – | – | – | – | – | – | – | – | Papp A→B at 90 min, 10 µM ([6]; dog, MDCK-MDR1): 0.843 ± 0.195 ×10⁻⁶ cm/s; Papp B→A at 90 min, 10 µM ([6]; dog, MDCK-MDR1): 5.8 ± 0.259 ×10⁻⁶ cm/s; efflux ratio at 90 min, 10 µM ([6]; dog, MDCK-MDR1, Efflux Ratio (Papp BL→AP/Papp AP→BL), Rh123 10 μM, 90 min, absence of verapamil): 6.88; Papp A→B at 90 min, 10 µM [6, 8]: 1.27 ± 0.213 ×10⁻⁶ cm/s; Papp B→A at 90 min, 10 µM [6, 8]: 1.71 ± 0.099 ×10⁻⁶ cm/s; efflux ratio at 90 min, 10 µM ([6]; dog, MDCK-MDR1, with verapamil 100 µM, Efflux Ratio (Papp BL→AP/Papp AP→BL), Rh123 10 μM with 100 μM verapamil, 90 min): 1.34 |
| CC[C@H]1CN2CC[C@@]3(C(=O)Nc4ccccc43)[C@@H]2C[C@@H]1/C(=C\OC)C(=O)OC [alkaloid 2, isorhynchophylline] | 94.3 ± 1.43% | 101 ± 1.89% | – | – | 108.52 ± 1.08% | 100.08 ± 2.26% | 105.21 ± 3.28% | 0.37 ± 0.06% | 27.7 ± 0.93 ×10⁻⁶ cm/s | 17.7 ± 1.2 ×10⁻⁶ cm/s | Intracellular Accumulation ([4]; AP→BL): 0.24 ± 0.04%; transport mechanism [4]: passive diffusion; Papp ([2]; MDCK-MDR1): ~10 ×10⁻⁶ cm/s |
